“And” between values parts separate entries of the source, which are not always exact repeats. Equal entries are not always repeated. “Also recorded” adds a separate entry of the source. Where two headings read alike, the source gives them in different places.
Legend:
Assay type in all cases: in vivo
[1] = Kinetics of UTP in the circulation; details: for half-life: in the circulation, read-out: terminal half-life (converted)
[2] = tested on: infarct area during acute myocardial infarction; test: ADP or UTP infusion during myocardial infarction in pigs (unpublished); details: infused during acute myocardial infarction, unpublished results
Excerpt: This is clearly in contrast to previous findings, but is more clinically relevant as most cardiac patients are older. […] This conclusion is also supported by another study by the present inventor in pigs where ADP or UTP was infused during myocardial infarction. […] Therefore, the previous assumptions in patent application WO 2007/065437 relating to the regulation of purinergic receptor activity to modulate vascular tone, particularly for treating hemodynamic conditions by overriding vasoconstriction activity, which could potentially have clinical applications for treatment with UTP agonists or antagonists, is incorrect.

[3] = tested on: coronary arteries in humans with coronary artery disease; test: FFR during continuous intracoronary infusion via microcatheter (Example 3); details: for % of patients with FFR ≦ 0.8 / adverse effects during IC continuous infusion: microcatheter study; for adverse effects during IC continuous infusion: 10 patients; for optimal dose for achieving maximal coronary hyperemia and thereby the lowest FFR: FIG. 5
Excerpt: As described previously, inducing stable maximal coronary hyperemia is essential for measurement of fractional flow reserve (FFR). This second experiment in a similar patient group evaluated the differential efficacy of intracoronary (IC) continuous adenosine infusion vs. IC continuous uridine triphosphate (UTP) infusion via a microcatheter for inducing steady state maximal coronary hyperemia. The present study was designed to evaluate the safety and effectiveness of the equimolar concentrations of UTP vs. adenosine infusion for use in the FFR method. Time to achievement of steady-state, impact of maximal hyperemia (lowest FFR) for the different compounds and side effects were recorded in 10 patients with intermediate coronary lesions. FFR was measured consecutively by IC continuous adenosine or UTP infusion using a microcatheter to bypass the proximal pressure transducer. The IC microcatheter (Progreat Microcatheter System, Terumo, Japan) used was positioned at the coronary ostium, and FFR was then measured by increasing IC continuous adenosine or UTP infusion rates in equimolar concentrations from 10 to 400 μg/min via the microcatheter.
After femoral catheterization, coronary angiography was performed with the standard femoral approach. Heparin was administered according to standard procedures.
Intracoronary nitroglycerin (0.2-0.3 mg) was administered before the control angiograms were made in the microcatheter study. Heart rate and arterial pressure were continuously monitored throughout the procedure. After a guiding catheter (5F catheter, Cordis Corp.) without side holes was positioned at the coronary ostium, coronary angiograms were obtained from multiple projections. Quantitative coronary analysis was performed by using an independent analyzer blinded to the results of FFR using a computer-assisted, automated computerized edge-detection algorithm (Siemens Medical System). The external diameter of the contrast-filled catheter was used as a calibration standard. Minimal luminal diameter, vessel diameter of the reference segment, and the percent diameter stenosis at end diastole were measured from the worst-view trace. After coronary angiography, a 0.014-in. pressure wire (Combowire, Volcano Corporation, US) was advanced distally to the stenosis through a 6F guiding catheter. In the microcatheter study, an IC bolus injection of nitroglycerin (0.2-0.3 mg) was given before advancing the pressure wire through the stenosis in order to avoid any mechanically-induced coronary vasoconstriction. The pressure wire was externally calibrated and then advanced to the distal tip of the catheter. It was verified whether equal pressure was recorded at both the catheter and the pressure wire. The pressure wire was advanced through the coronary catheter, introduced into the coronary artery, and positioned distal to the stenosis.
Distal coronary pressure (Pd) and proximal coronary pressure (Pa) were measured at baseline and at maximal hyperemia (adenosine vs. UTP) simultaneously. Fractional flow reserve was calculated by dividing mean Pd by mean Pa during maximal hyperemia. The time to optimal vasodilatation (time needed to reach >90% of the minimal value of Pd/Pa after administration of the adenosine or UTP) was computed in order to assess whether procedure time was prolonged. The hyperemic stimuli were given as follows: an IC continuous infusion of adenosine or UTP in incremental doses of 10, 20, 40, 80, 160, 240, […] and 400 μg/min, in both the left and right coronary artery depending upon lesion anatomy. The dosages were increased stepwise by IC continuous infusion with the microcatheter where the stepwise dose increase was recorded continuously without breaks. After each stepwise increase, FFR and CFR were recorded automatically. The next hyperemic stimulus UTP vs adenosine was given when Pa, Pd, and heart rate returned to their baseline values.

Row | SMILES | FFR Mean ([3]; mean of patients, 10 μg/min) | FFR Mean ([3]; mean, 20 μg/min) | FFR Mean ([3]; mean, 40 μg/min) | FFR Mean ([3]; mean, 80 μg/min) | FFR Mean ([3]; mean, 160 μg/min) | FFR Mean ([3]; mean, 240 μg/min) | FFR Mean ([3]; mean, 320 μg/min) | FFR Mean ([3]; mean, 400 μg/min) | % of patients with FFR ≦ 0.8 ([3]; 80 μg/min (n = 8)) | % of patients with FFR ≦ 0.8 ([3]; 160 μg/min (n = 6)) | % of patients with FFR ≦ 0.8 ([3]; 320 μg/min (n = 9)) | % of patients with FFR ≦ 0.8 ([3]; 400 μg/min (n = 3)) | adverse effects during IC continuous infusion [3] | optimal dose for achieving maximal coronary hyperemia and thereby the lowest FFR ([3]; microcatheter) | further results
1 | O=c1ccn([C@@H]2O[C@H](COP(=O)(O)OP(=O)(O)OP(=O)(O)O)C(O)[C@@H]2O)c(=O)[nH]1 (stereo partly shown) [UTP, Uridine 5-triphosphate] | 0.84 | 0.83 | 0.83 | 0.78 | 0.79 | 0.79 | 0.79 | 0.79 | 62 % of patients | 50 % of patients | 44 % of patients | 33 % of patients | None of the patients had chest pain in the UTP group; also recorded: All patients tolerated UTP without side effects | approximately 80 μg/min | half-life ([1]; blood (the circulation)): ~20 s; time to peak ([1]; in vivo): 5 s; half-life ([1]; in vivo): 20 s; effect on infarct area [2]: increased the infarct area; FFR in comparison to IC adenosine infusion ([3]; P<0.05): significantly lower; steady-stable hyperemia lasted longer compared to adenosine infusion ([3]; in vivo): ~20 s; FFR ([3]; individual patients (row = patient no.), IC continuous infusion 10 μg/min, microcatheter): 0.72 and 0.95 and 0.84; FFR ([3]; individual patients, 20 μg/min): 0.71 and 0.95; FFR ([3]; individual patients, 40 μg/min): 0.72 and 0.95 and 0.83; FFR ([3]; individual patients, 80 μg/min): 0.73 and 0.79 and 0.88 and 0.56 and 0.71 and 0.97 and 0.83; FFR ([3]; individual patients, 160 μg/min): 0.90 and 0.73 and 0.79 and 0.86 and 0.56 and 0.71 and 0.92 and 0.83; FFR ([3]; individual patients, 240 μg/min): 0.89 (2×) and 0.73 and 0.79 and 0.87 and 0.55; FFR ([3]; individual patients, 400 μg/min): 0.90 and 0.92 and 0.56; induction time to optimal coronary hyperemia ([3]; versus IC continuous adenosine infusion): shorter
2 | Nc1ncnc2c1ncn2[C@@H]1O[C@H](CO)[C@@H](O)[C@H]1O [adenosine] | 0.90 | 0.88 | 0.86 | 0.84 | 0.82 | 0.81 | 0.82 | 0.82 | 37 % of patients | 33 % of patients | 44 % of patients | 33 % of patients | nearly all felt angina in the adenosine group; also recorded: some patients had a transient second degree A-V block; also recorded: nearly all patients experienced side effects | ~240 µg/min | FFR ([3]; individual patients (row = patient no.), IC continuous infusion 10 μg/min, microcatheter, listed as ADO): 0.81 and 0.94 and 0.86 and 0.99; FFR ([3]; individual patients, 20 μg/min, listed as ADO): 0.75 and 0.94 and 0.95; FFR ([3]; individual patients, 40 μg/min, listed as ADO): 0.73 and 0.94 (2×) and 0.82; FFR ([3]; individual patients, 80 μg/min, listed as ADO): 0.83 and 0.95 and 0.76 and 0.71 and 0.94 and 0.82 and 0.88; FFR ([3]; individual patients, 160 μg/min, listed as ADO): 0.80 and 0.95 (2×) and 0.60 and 0.68 and 0.85 and 0.96 and 0.75; FFR ([3]; individual patients, 240 μg/min, listed as ADO): 0.81 and 0.94 and 0.60 and 0.87 and 0.91 and 0.71; FFR ([3]; individual patients, 400 μg/min, listed as ADO): 0.56 and 1.01 and 0.89

Source: US8394355B2, “Use of UTP for the diagnosis of stenoses and other conditions of restricted blood flow” (P2 science Aps, priority 2009, dated 2013)
